The values below are quoted from earlier work in US20230405042A1, “Compositions to Modify Intestinal Nutrient Absorption, Methods of Making and Uses Thereof” (McMaster University, priority 2022, published 2023).

The test system of this series is rodents. Particulars: oral delivery or injection in rodents.

With `C[C@H](O)C(=O)O` [L-lactate], the Liver glycogen formation result is reported as “hardly forms any liver glycogen”.

As to `C[C@@H](O)C(=O)O` [D-lactate], the Liver glycogen formation entry is “leads to glycogen deposition in the liver”.
